Test [1] can be described thus: Ratio of kinetic parameters of Vmax to Km was reported.
The subject of a further test is C8166. As to the kind of experiment: Compound was evaluated for the inhibition of p24 viral antigen production in C-8166 cells. The conditions noted are these: Homo sapiens. Format: functional, cell-based.
The subject of test [2] is Human alphaherpesvirus 1. Put plainly: Inhibitory activity against HSV-1 replication. The format is functional, organism-based.
For test [3], the system named is MT4. As to the kind of experiment: Compound was evaluated for the inhibition of HIV-1 induced cytopathic effect in MT-4 cells. Format: functional, cell-based. The conditions noted are these: Homo sapiens. For orientation: Protection from cytopathic effect is a common read-out in antiviral testing.
The subject of test [4] is Human alphaherpesvirus 1. As to the kind of experiment: Anti-HSV-1 activity at 300 uM; Not active. Format: functional, organism-based.
In test [5] the test system is Human betaherpesvirus 5. As to the kind of experiment: Inhibition of HCMV replication in MRC-5 cells; No inhibition. Format: functional, organism-based. The note with it: mrc5.
Test [6] relates to Human betaherpesvirus 5. As to the kind of experiment: Inhibition of HCMV replication in Vero cells at 250 uM; No inhibition. Format: functional, organism-based.
Test [7] has as its system MT4. Put plainly: Compound was evaluated for the concentration required to reduce the viability of MT-4 cells. Format: functional. The conditions noted are these: Homo sapiens.
The next test concerns Vero. Put plainly: Cytotoxicity against Vero cells up to 250 uM; Not active. The format is functional, cell-based, Chlorocebus sabaeus.
The subject of test [8] is Human alphaherpesvirus 1. As to the kind of experiment: Tested for activity against HSV-1; Not active. Format: functional, organism-based.

The structures appear in SMILES notation.

Consider `Nc1nc2c(ncn2[C@@H]2O[C@H](COP(=O)(O)O)[C@H](O)[C@@H]2O)c(=O)[nH]1`, for which the Ratio in [1] amounted to 100.
As to `Nc1ncnc2c1ncn2CCOCP(=O)(O)O` [ADEFOVIR], the EC50 – broadly, the concentration giving half of the maximal effect – with C8166 amounted to 1.5 µM; in the test on MT4 [3], 20 µM. For the same compound, it took 117 µM to reach half-maximal inhibition in the test with Human alphaherpesvirus 1 [2] (IC50).
Take `C=C(/C=C/P(=O)(O)O)Cn1cnc2c(O)nc(N)nc21`: the IC50 (commonly the concentration that gives 50% inhibition) with Human alphaherpesvirus 1 [4] is “Not Active”; in the test with Human alphaherpesvirus 1 [2] it was 119 µM; in the test with Human betaherpesvirus 5 [5], “Not Active”; in the test with Human betaherpesvirus 5 [6], “Not Active”; in the test with Vero, “Not Active”. Besides, the cytotoxic concentration (CC50) (in general, the concentration giving 50% cytotoxicity) in the test on MT4 [7] is > 1000 µM. Moreover, the EC50 in the test on MT4 [3] is > 100 µM. For the same compound, the Ratio in test [1] was 1.8.
As for `Cc1cn([C@H]2C[C@H](N=[N+]=[N-])[C@@H](CO)O2)c(=O)[nH]c1=O` [ZIDOVUDINE], the EC50 with C8166 and in the test on MT4 [3] was 0.04 µM each time.
`C=C(/C=C/P(=O)(O)O)CCn1cnc2c(O)nc(N)nc21`: the values for the EC50 in the test with C8166 and in the test with MT4 [3] were 8 µM and 49 µM, respectively. Also, the IC50 result in the test with Human betaherpesvirus 5 [5], in the test on Human betaherpesvirus 5 [6], with Vero and in the test on Human alphaherpesvirus 1 [8] was “Not Active” throughout. Further, the CC50 in the test on MT4 [7] was > 1000 µM. Moreover, the Ratio in [1] was determined as 102.
As for `O=c1[nH]cnc2c1ncn2[C@H]1CC[C@@H](CO)O1` [DIDANOSINE], the figures for the EC50 in the test on C8166 and in the test on MT4 [3] were 0.9 µM and 13 µM, respectively. Also, the 50% cytotoxic concentration (CC50) in the test with MT4 [7] was > 1000 µM.
